Data: patent US10081631B2, “2-(1H-indazol-3-yl)-1H-imidazo[4,5-C]pyridine and therapeutic uses thereof” (Samumed, LLC, priority 2014, dated 2018)

Key:
[1] = tested on: Wnt activity (Sp5-Luc reporter, SW480 colon carcinoma cells); test: Screening assay for Wnt activity: Sp5-Luc reporter gene assay in SW480 cells; assay type: cell-based; details: Homo sapiens, 42 h incubation, luminescence
Description: The screening assay for Wnt activity is described as follows. Reporter cell lines can be generated by stably transducing cancer cell lines (e.g., colon cancer) or primary cells (e.g., IEC-6 intestinal cells) with a lentiviral construct that includes a Wnt-responsive promoter driving expression of the firefly luciferase gene.
SW480 colon carcinoma cells were transduced with a lentiviral vector expressing luciferase with a human Sp5 promoter consisting of a sequence of eight TCF/LEF binding sites. SW480 cells stably expressing the Sp5-Luc reporter gene and a hygromycin resistance gene were selected by treatment with 150 μg/ml of hygromycin for 7 days. These stably transduced SW480 cells were expanded in cell culture and used for all further screening activities. For Sp5-Luc reporter gene assays, the cells were plated at 10,000 cells/well in 96-well plates with growth medium containing 10% fetal calf serum and incubated overnight at 37° C. and 5% CO2. Each compound was dissolved in DMSO as a 10 mM stock in standard j-vials and used to prepare compound source plates in dose-response format with 3-fold serial dilutions and a 10 mM top concentration. Compound transfer from serially diluted source plates to assay plates containing the cells was accomplished using a pintool (Multimek 96, Beckman equipped with V&P Scientific FP1S50H pins) based liquid handling protocol. This protocol used a slotted pin to transfer 50 nl of compound from a source plate well to an assay plate well containing 50 μl of cells in growth medium. […] Control wells received 50 nl of DMSO treatment for normalization and calculating IC50 values. The treated cells were incubated at 37° C. and 5% CO2 for an additional forty-two hours. Following incubation, the growth medium was removed and 50 μl of BrightGlo luminescence reagent (Promega) was added to each well of the 96-well assay plates. The plates were placed on an orbital shaker for 5 min and then luminescence was quantified on the Victor3 (Perkin Elmer) plate reader. Readings were normalized to DMSO only treated cells, and normalized activities were utilized for IC50 calculations using the dose-response log (inhibitor) vs. response-variable slope (four parameters) nonlinear regression feature available in GraphPad Prism 5.0 or 6.0.

[2] = tested on: primary human fibroblasts derived from IPF patients (LL29 cells); test: Inhibition of fibrosis: TGF-β1-treated primary human fibroblasts from IPF patients (LL29), αSMA staining; assay type: cell-based; details: Fibroblast, 96 h, TGF-β1 20 ng/mL, 4 days, % αSMA-positive cells
Description: The above synthesized compounds were screened using primary human fibroblasts (derived from IPF patients) treated with TGF-β1 to determine their ability to inhibit the fibrotic process.
Primary human fibroblasts derived from IPF patients (LL29 cells) [^1Xiaoqiu Liu, et. al., “Fibrotic Lung Fibroblasts Show Blunted Inhibition by cAMP Due to Deficient cAMP Response Element-Binding Protein Phosphorylation”, Journal of Pharmacology and Experimental Therapeutics (2005), 315(2), 678-687; ^2Watts, K. L., et. al., “RhoA signaling modulates cyclin D1 expression in human lung fibroblasts; implications for idiopathic pulmonary fibrosis”, Respiratory Research (2006), 7(1), 88] were obtained from American Type Culture Collection (ATCC) and expanded in F12 medium supplemented with 15% Fetal Bovine Serum and Penicillin/Streptomycin.
Each compound was dissolved in DMSO as a 10 mM stock and used to prepare compound source plates. Serial dilution (1:2, 11-point dose-response curves from 10 μM to 1.87 nM) and compound transfer was performed using the ECHO 550 (Labcyte, Sunnyvale, Calif.) into 384-well clear bottom assay plates (Greiner Bio-One) with appropriate DMSO backfill for a final DMSO concentration of 0.1%. LL29 cells were plated at 1,500 cells/well in 80 μl/well F12 medium supplemented with 1% Fetal Bovine Serum. One hour after addition of the cells, TGF-β1 (Peprotech; 20 ng/mL) was added to the plates to induce fibrosis (ref 1 and 2 above). Wells treated with TGF-β1 and containing DMSO were used as controls. Cells were incubated at 37° C. and 5% CO2 for 4 days. Following incubation for 4 days, SYTOX green nucleic acid stain (Life Technologies [Thermo Fisher Scientific]) was added to the wells at a final concentration of 1 uM and incubated at room temperature for 30 min. Cells were then fixed using 4% formaldehyde (Electron Microscopy Sciences), washed 3 times with PBS followed by blocking and permeabilization using 3% Bovine Serum Albumin (BSA; Sigma) and 0.3% Triton X-100 (Sigma) in PBS. Cells were then stained with antibody specific to α-smooth muscle actin (αSMA; Abcam) (ref 1 and 2 above) in 3% Bovine Serum Albumin (BSA; Sigma) and 0.3% Triton X-100 (Sigma) in PBS, and incubated overnight at 4° C. Cells were then washed 3 times with PBS, followed by incubation with Alexa Flor-647 conjugated secondary antibody (Life Technologies [Thermo Fisher Scientific]) and DAPI at room temperature for 1 hour. Cells were then washed 3 times with PBS and plates were sealed for imaging. αSMA staining was imaged by excitation at 630 nm and emission at 665 nm and quantified using the Compartmental Analysis program on the CellInsight CX5 (Thermo Scientific). Dead or apoptotic cells were excluded from analysis based on positive SYTOX green staining. % of total cells positive for αSMA were counted in each well and normalized to the average of 11 wells treated with TGF-β1 on the same plate using Dotmatics' Studies Software. The normalized averages (fold change over untreated) of 3 replicate wells for each compound concentration were used to create dose-responses curves and EC50 values were calculated using non-linear regression curve fit in the Dotmatics' Studies Software. The EC50 values are reported.

IC50 [1]	SMILES	EC50 [2]
2340 nM	Fc1cccc(-c2nccc3[nH]c(-c4n[nH]c5ccc(C6CCNCC6)cc45)nc23)c1 [Compound 1769, 4-(3-Fluorophenyl)-2-(5-(piperidin-4-yl)-1H-indazol-3-yl)-1H-imidazo[4,5-c]pyridine]	670 nM
34.8 nM	O=C(Nc1cncc(-c2ccc3[nH]nc(-c4nc5c(-c6cccs6)nccc5[nH]4)c3c2)c1)C1CCCC1 [Compound 307, N-(5-(3-(4-(Thiophen-2-yl)-1H-imidazo[4,5-c]pyridin-2-yl)-1H-indazol-5-yl)pyridin-3-yl)cyclopentanecarboxamide]	422 nM
778 nM	Fc1cccc(-c2nccc3[nH]c(-c4n[nH]c5ccc(-c6cncc(OC7CCNCC7)c6)cc45)nc23)c1 [Compound 1776, 4-(3-Fluorophenyl)-2-(5-(5-(piperidin-4-yloxy)pyridin-3-yl)-1H-indazol-3-yl)-1H-imidazo[4,5-c]pyridine]	38 nM
< 1 nM	CC(C)Nc1cncc(-c2ccc3[nH]nc(-c4nc5c(-c6ccoc6)nccc5[nH]4)c3c2)c1 [Compound 272, 5-(3-(4-(Furan-3-yl)-1H-imidazo[4,5-c]pyridin-2-yl)-1H-indazol-5-yl)-N-isopropylpyridin-3-amine]	9 nM
4 nM	CN(C)c1cncc(-c2ccc3[nH]nc(-c4nc5c(-c6cccc(F)c6)nccc5[nH]4)c3c2)c1 [Compound 7, 5-(3-(4-(3-Fluorophenyl)-1H-imidazo[4,5-c]pyridin-2-yl)-1H-indazol-5-yl)-N,N-dimethylpyridin-3-amine]	9 nM
< 1 nM	CC(=O)c1ccc(-c2nccc3[nH]c(-c4n[nH]c5ccc(-c6cccnc6)cc45)nc23)s1 [Compound 368, 1-(5-(2-(5-(Pyridin-3-yl)-1H-indazol-3-yl)-1H-imidazo[4,5-c]pyridin-4-yl)thiophen-2-yl)ethan-1-one]	14 nM
505 nM	O=C(CC1CCCCC1)Nc1cncc(-c2ccc3[nH]nc(-c4nc5c(-c6cccc(F)c6)nccc5[nH]4)c3c2)c1 [Compound 1783, 2-Cyclohexyl-N-(5-(3-(4-(3-fluorophenyl)-1H-imidazo[4,5-c]pyridin-2-yl)-1H-indazol-5-yl)pyridin-3-yl)acetamide]	–
248 nM	CCCCC(=O)Nc1cncc(-c2ccc3[nH]nc(-c4nc5c(-c6ccccn6)nccc5[nH]4)c3c2)c1 [Compound 148, N-(5-(3-(4-(Pyridin-2-yl)-1H-imidazo[4,5-c]pyridin-2-yl)-1H-indazol-5-yl)pyridin-3-yl)pentanamide]	–

Continued, molecule first:

SMILES	IC50 [1]	EC50 [2]
O=C(Nc1cncc(-c2ccc3[nH]nc(-c4nc5c(-c6ccoc6)nccc5[nH]4)c3c2)c1)C1CCC1 [Compound 280, N-(5-(3-(4-(Furan-3-yl)-1H-imidazo[4,5-c]pyridin-2-yl)-1H-indazol-5-yl)pyridin-3-yl)cyclobutanecarboxamide]	27.9 nM	1240 nM
Fc1cccc(-c2nccc3[nH]c(-c4n[nH]c5ccc(C6=CCNCC6)cc45)nc23)c1 [Compound 1770, 4-(3-Fluorophenyl)-2-(5-(1,2,3,6-tetrahydropyridin-4-yl)-1H-indazol-3-yl)-1H-imidazo[4,5-c]pyridine]	658 nM	9990 nM
Fc1cccc(-c2nccc3[nH]c(-c4n[nH]c5ccc(-c6ccncc6)cc45)nc23)c1 [Compound 1784, 4-(3-Fluorophenyl)-2-(5-(pyridin-4-yl)-1H-indazol-3-yl)-1H-imidazo[4,5-c]pyridine]	> 10000 nM	9990 nM
CN1CCN(c2nccc3[nH]c(-c4n[nH]c5ccc(-c6cncc(NC(=O)CC(C)(C)C)c6)cc45)nc23)CC1 [Compound 224, 3,3-Dimethyl-N-(5-(3-(4-(4-methylpiperazin-1-yl)-1H-imidazo[4,5-c]pyridin-2-yl)-1H-indazol-5-yl)pyridin-3-yl)butanamide]	673 nM	1090 nM
O=C(Nc1cncc(-c2ccc3[nH]nc(-c4nc5c(-c6ccsc6)nccc5[nH]4)c3c2)c1)C1CC1 [Compound 253, N-(5-(3-(4-(Thiophen-3-yl)-1H-imidazo[4,5-c]pyridin-2-yl)-1H-indazol-5-yl)pyridin-3-yl)cyclopropanecarboxamide]	126 nM	544 nM
CC(C)C(=O)Nc1cncc(-c2ccc3[nH]nc(-c4nc5c(-c6cccnc6)nccc5[nH]4)c3c2)c1 [Compound 87, N-(5-(3-(4-(Pyridin-3-yl)-1H-imidazo[4,5-c]pyridin-2-yl)-1H-indazol-5-yl)pyridin-3-yl)isobutyramide]	3 nM	295 nM
CCCC(=O)Nc1cncc(-c2ccc3[nH]nc(-c4nc5c(-c6ccsc6)nccc5[nH]4)c3c2)c1 [Compound 251, N-(5-(3-(4-(Thiophen-3-yl)-1H-imidazo[4,5-c]pyridin-2-yl)-1H-indazol-5-yl)pyridin-3-yl)butyramide]	1 nM	18 nM
O=C(Nc1cncc(-c2ccc3[nH]nc(-c4nc5c(-c6cccs6)nccc5[nH]4)c3c2)c1)C1CC1 [Compound 305, N-(5-(3-(4-(Thiophen-2-yl)-1H-imidazo[4,5-c]pyridin-2-yl)-1H-indazol-5-yl)pyridin-3-yl)cyclopropanecarboxamide]	4 nM	22 nM
Cc1ccncc1-c1ccc2[nH]nc(-c3nc4c(-c5cc(F)cc(CNS(C)(=O)=O)c5)nccc4[nH]3)c2c1 [Compound 395, N-(3-Fluoro-5-(2-(5-(4-methylpyridin-3-yl)-1H-indazol-3-yl)-1H-imidazo [4,5-c]pyridin-4-yl)benzyl)methanesulfonamide]	85 nM	26 nM
O=C(Nc1cncc(-c2ccc3[nH]nc(-c4nc5c(-c6ccccc6F)nccc5[nH]4)c3c2)c1)C1CCCC1 [Compound 73, N-(5-(3-(4-(2-Fluorophenyl)-1H-imidazo[4,5-c]pyridin-2-yl)-1H-indazol-5-yl)pyridin-3-yl)cyclopentanecarboxamide]	8 nM	9 nM
CS(=O)(=O)NCc1cc(F)cc(-c2nccc3[nH]c(-c4n[nH]c5ccc(-c6cncnc6)cc45)nc23)c1 [Compound 416, N-(3-Fluoro-5-(2-(5-(pyrimidin-5-yl)-1H-indazol-3-yl)-1H-imidazo[4,5-c]pyridin-4-yl)benzyl)methanesulfonamide]	< 1 nM	27 nM
CN(C)Cc1cncc(-c2ccc3[nH]nc(-c4nc5c(-c6cc(F)cc(CNS(C)(=O)=O)c6)nccc5[nH]4)c3c2F)c1 [Compound 1729, N-(3-(2-(5-(5-((Dimethylamino)methyl)pyridin-3-yl)-4-fluoro-1H-indazol-3-yl)-1H-imidazo[4,5-c]pyridin-4-yl)-5-fluorobenzyl)methanesulfonamide]	1100 nM	–
